Assay results taken from PubChem BioAssay AID1963845 (Molecular Pharmacology Branch, DTP, NCI, 2024).

System: 429239-143-T-J1-PDC complex spheroid viability
Assay: Anticancer human tumor 429239-143-T-J1-PDC patient-derived small cell lung carcinoma cell line growth inhibition [POLQ]
Conditions: for IC50: curve of first compound; for viability, T/C: stronger effect = lower value
Outline: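 Three-cell-type spheroids modelling solid tumor plus stroma served as the readout system; POL inhibitors were tested individually and in combination, concentration ranges set by clinical Cmax where known.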

[1] = second compound 0.0316 µM, first compound 0.0316 µM
[2] = second compound 0.0316 µM, first compound 0.1 µM
[3] = second compound 0.0316 µM, first compound 0.316 µM
[4] = second compound 0.0316 µM, first compound 1 µM
[5] = second compound 0.0316 µM, first compound 3.16 µM
[6] = second compound 0.0316 µM, first compound 10 µM
[7] = second compound 0.1 µM, first compound 0.0316 µM
[8] = second compound 0.1 µM, first compound 0.1 µM
[9] = second compound 0.1 µM, first compound 0.316 µM
[10] = second compound 0.1 µM, first compound 1 µM
[11] = second compound 0.1 µM, first compound 3.16 µM
[12] = second compound 0.1 µM, first compound 10 µM
[13] = second compound 0.316 µM, first compound 0.0316 µM
[14] = second compound 0.316 µM, first compound 0.1 µM
[15] = second compound 0.316 µM, first compound 0.316 µM
[16] = second compound 0.316 µM, first compound 1 µM
[17] = second compound 0.316 µM, first compound 3.16 µM
[18] = second compound 0.316 µM, first compound 10 µM
[19] = second compound 1 µM, first compound 0.0316 µM
[20] = second compound 1 µM, first compound 0.1 µM
[21] = second compound 1 µM, first compound 0.316 µM
[22] = second compound 1 µM, first compound 1 µM
[23] = second compound 1 µM, first compound 3.16 µM
[24] = second compound 1 µM, first compound 10 µM
[25] = second compound 3.16 µM, first compound 0.0316 µM
[26] = second compound 3.16 µM, first compound 0.1 µM
[27] = second compound 3.16 µM, first compound 0.316 µM
[28] = second compound 3.16 µM, first compound 1 µM
[29] = second compound 3.16 µM, first compound 3.16 µM
[30] = second compound 3.16 µM, first compound 10 µM
[31] = second compound 10 µM, first compound 0.0316 µM
[32] = second compound 10 µM, first compound 0.1 µM
[33] = second compound 10 µM, first compound 0.316 µM
[34] = second compound 10 µM, first compound 1 µM
[35] = second compound 10 µM, first compound 3.16 µM
[36] = second compound 10 µM, first compound 10 µM
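Note: luminescence signal used as surrogate measure of viable cells; spheroids exposed to compounds for seven days before readout.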
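Throughout, for viability, T/C: 100% = DMSO vehicle control viability as luminescence relative to vehicle.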

For CC1COCCN1c1cc(C2(S(C)(=N)=O)CC2)nc(-c2ccnc3[nH]ccc23)n1 (centres undefined) + Nc1ccc(C#CCN(C(=O)Cc2ncc(C(F)(F)F)cc2C(F)(F)F)c2ccc(F)cc2)nn1, the IC50 (second compound 0.0316 µM) was > 10000 nM, the IC50 (second compound 0.1 µM) was 9980 nM and the IC50 (second compound 0.316 µM) was 9920 nM. For the same molecule, the IC50 (second compound 1 µM) was > 10000 nM, the IC50 (second compound 3.16 µM) was 8710 nM and the IC50 (second compound 10 µM) was 7190 nM. It also gave a viability, T/C [1] of 90.4%, a viability, T/C [2] of 105% and a viability, T/C [3] of 100%. The viability, T/C [4] was 91%, the viability, T/C [5] was 80.4% and the viability, T/C [6] was 53.3%. It also gave a viability, T/C [7] of 109%, a viability, T/C [8] of 104% and a viability, T/C [9] of 94.6%. For the same molecule, the viability, T/C [10] was 95.2%, the viability, T/C [11] was 84.8% and the viability, T/C [12] was 49%. The viability, T/C [13] was 99.9%, the viability, T/C [14] was 97.7% and the viability, T/C [15] was 97.2%. The viability, T/C [16] was 92.5%, the viability, T/C [17] was 77.2% and the viability, T/C [18] was 49.6%. For the same molecule, the viability, T/C [19] was 113%, the viability, T/C [20] was 91.2% and the viability, T/C [21] was 90.2%. For the same molecule, the viability, T/C [22] was 90.2%, the viability, T/C [23] was 79.2% and the viability, T/C [24] was 51.6%. The viability, T/C [25] was 99.1%, the viability, T/C [26] was 86.8% and the viability, T/C [27] was 90.7%. For the same molecule, the viability, T/C [28] was 95.2%, the viability, T/C [29] was 79.6% and the viability, T/C [30] was 46%. The viability, T/C [31] was 95.5%, the viability, T/C [32] was 91.4% and the viability, T/C [33] was 101%. For the same molecule, the viability, T/C [34] was 83.9%, the viability, T/C [35] was 79.7% and the viability, T/C [36] was 38.5%.

COc1cc(C2c3cc4c(cc3C(OC3OC5COC(C)OC5C(O)C3O)C3COC(=O)C23)OCO4)cc(OC)c1O (centres undefined) + Nc1ccc(C#CCN(C(=O)Cc2ncc(C(F)(F)F)cc2C(F)(F)F)c2ccc(F)cc2)nn1 was tested, and the IC50 (second compound 0.0316 µM) was 506 nM, the IC50 (second compound 0.1 µM) was 489 nM and the IC50 (second compound 0.316 µM) was 514 nM. For the same molecule, the IC50 (second compound 1 µM) was 463 nM, the IC50 (second compound 3.16 µM) was 486 nM and the IC50 (second compound 10 µM) was 444 nM. For the same molecule, the viability, T/C [1] was 106%, the viability, T/C [2] was 103% and the viability, T/C [3] was 76.4%. It also gave a viability, T/C [4] of 11.7%, a viability, T/C [5] of 6.31% and a viability, T/C [6] of 7.42%. For the same molecule, the viability, T/C [7] was 103%, the viability, T/C [8] was 99.5% and the viability, T/C [9] was 73%. The viability, T/C [10] was 12%, the viability, T/C [11] was 7.16% and the viability, T/C [12] was 6.74%. The viability, T/C [13] was 104%, the viability, T/C [14] was 105% and the viability, T/C [15] was 77.2%. For the same molecule, the viability, T/C [16] was 12.9%, the viability, T/C [17] was 5.81% and the viability, T/C [18] was 7.82%. It also gave a viability, T/C [19] of 92.5%, a viability, T/C [20] of 95.3% and a viability, T/C [21] of 68.5%. It also gave a viability, T/C [22] of 12.6%, a viability, T/C [23] of 7.75% and a viability, T/C [24] of 8.54%. It also gave a viability, T/C [25] of 100%, a viability, T/C [26] of 95.2% and a viability, T/C [27] of 71.3%. For the same molecule, the viability, T/C [28] was 14.6%, the viability, T/C [29] was 5.65% and the viability, T/C [30] was 8.11%. It also gave a viability, T/C [31] of 100%, a viability, T/C [32] of 96.1% and a viability, T/C [33] of 66.1%. For the same molecule, the viability, T/C [34] was 11.5%, the viability, T/C [35] was 5.67% and the viability, T/C [36] was 7.88%.
